Measured values: patent US6472175B1, “Sialylation of N-linked glycoproteins in the baculovirus expression vector system” (Boyce Thompson Institute For Plant Research, Inc., priority 1999, dated 2002)

How the values were obtained:
[1] = tested on: Tn-4h Insect Tissue Culture Cells; test: Measurement of total cellular sialic acid (colorimetric assay) in Tn-4h insect tissue culture cells; assay type: cell-based, Trichoplusia ni
Text: Since substrate levels can affect sialylation, it was hypothesized that the microgravity-mediated sialylation might have resulted from an increase in substrate availability. […] This hypothesis was investigated further by comparing the concentration of sialic acid in cells grown in T-flasks and in HARV bioreactors.

Tn-4h cells = test: Sialylation of baculovirus-expressed SEAP N-linked glycans, normal phase HPLC of 2-AB-labeled glycans; assay type: cell-based, Trichoplusia ni; settings: normal gravity
Method: Once the SEAP protein is purified, the oligosaccharide moieties are cleaved from the glycoprotein with peptide N-glycosidase F (cleaves oligomannose, hybrid and complex oligosaccharides with or without terminal sialic acid residues). The oligosaccharides are then bonded to a fluorophore marker. The labeled sugar can be digested with various glycosidases that cleave specific linkages. The samples are analyzed by HPLC. Normal phase HPLC fractionations are carried out with a 50 mM ammonium phosphate, pH 4.4, and acetonitrile gradient on a Glyco Sep-N column (OGS, Oxford, UK) by a technique being known in the art, and incorporated by reference (Guile et al., 1996; Mattu et al., 1998). The Glyco Sep-N column is capable of resolving both neutral and charged sugar residues based on hydrophilicity (related to the hydrodynamic volume and molecular size). To obtain accurate glucose equivalency values, the GlycoSep-N is calibrated with a 2-aminobenzamide (2-AB) labeled dextran hydrolysate ladder and glucose homopolymers. The 2-AB fluorescence is detected and quantified using a Waters^a 474 Scanning Fluorescence Detector (Waters Corporation, MA) at λex 330 nm and λcm 420 nm using a 16 μl flow cell.
Since substrate levels can affect sialylation, it was hypothesized that the microgravity-mediated sialylation might have resulted from an increase in substrate availability. […]

mammalian (CHO) cells = settings: cited from earlier work

CC(=O)N[C@@H]1C(O)O[C@H](CO)[C@@H](O)[C@@H]1O (stereo partly shown) [ManNAc, N-acetylmannosamine]
change of sialic acid level, infected cells ([1]; addition to culture medium, infected Tn-4h cells): not infected cells | change of sialic acid level, uninfected cells ([1]; addition to culture medium, uninfected Tn-4h cells): increased the levels of sialic acid in uninfected cells | nMoles Sialic Acid per mg Cell Protein, Infected ([1]; baculovirus infected Tn-4h cells, T-flask, medium supplemented with 5 mM ManNAc): 98 ± 9 nMoles Sialic Acid per mg Cell Protein | nMoles Sialic Acid per mg Cell Protein, Uninfected ([1]; uninfected Tn-4h cells, T-flask, medium supplemented with 5 mM ManNAc): 62 ± 7 nMoles Sialic Acid per mg Cell Protein | sialylated SEAP glycans identified (Tn-4h cells; 5 mM in medium, stationary T-flasks, Tn-4h cells): five sialylated SEAP glycans were identified | induction of complex, sialylated glycans on a secreted human glycoprotein (Tn-4h cells; culture media supplemented, insect tissue culture cells): induced to produce complex, sialylated glycans | effect on sialylation (mammalian (CHO) cells): increase sialylation
